Consider six compounds from US8268789B2, “PAR-2 antagonists” (Kowa Company, Ltd., priority 2004, dated 2012).

Like-named read-outs stand apart in the source and are kept apart here.

This experiment addresses T1, PAR-2 (Homo sapiens, UniProt P55085).
T1 construct: intracellular Ca^2+ level change by PAR-2 agonist in human keratinocytes expressing PAR-2; host or cells: primary human keratinocytes, passage 3 to 5
T1 sequence (P55085 26-397): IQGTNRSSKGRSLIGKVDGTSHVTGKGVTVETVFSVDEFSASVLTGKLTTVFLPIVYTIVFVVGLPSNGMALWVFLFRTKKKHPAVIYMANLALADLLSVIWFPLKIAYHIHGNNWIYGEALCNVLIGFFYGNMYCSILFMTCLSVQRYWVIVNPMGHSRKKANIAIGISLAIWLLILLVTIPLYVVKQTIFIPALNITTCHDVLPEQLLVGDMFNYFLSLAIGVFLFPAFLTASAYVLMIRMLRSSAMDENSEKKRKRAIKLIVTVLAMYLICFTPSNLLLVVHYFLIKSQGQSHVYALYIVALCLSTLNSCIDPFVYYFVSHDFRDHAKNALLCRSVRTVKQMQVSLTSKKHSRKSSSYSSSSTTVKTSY
In words: Assay of intracellular Ca2+ level in human keratinocytes stimulated with PAR-2 agonist peptide. The format is cell-based. As to conditions: for inhibition at 10 µg/mL: read-out: Inhibition Rate (%) (Means ± Standard Error, n = 3). The procedure:
The keratinocytes were subjected to passage culture with trypsin/EDTA, and the cells whose passage number was 3 to 5 were used in the experiment.
Flex Station Calcium assay kit 2, which is a fluorescent reagent kit for calcium assay, was purchased from Molecular Devices and used in reagent preparation according to an accompanying protocol. Probenecid, Calcium ionophore (A23187) was purchased from Sigma. The human keratinocytes were seeded at a density of 40,000 cells/well to a 96-well black-well clear-bottom plate (Corning) and cultured for 24 hours until the cells became subconfluent. After washing once with KBM, 80 μl KBM was added to each well. Subsequently, a fluorescent dye solution containing an equal volume of Probenecid at a final concentration of 2 mM (HBSS solution, pH 7.4) was added to each well and incubated at 37° C. for 1 hour. Thereafter, the plate was left for 15 minutes at room temperature and assayed at room temperature (25° C.). The test chemical and the stimulants were prepared by diluting KBM having 10-fold concentration of a final concentration respectively which were then added in a volume of 20 μL respectively for assay. Measurement was carried out with a fluorescent plate reader FlexStation (Molecular Devices) compatible with a 96-well plate equipped with an injector. The measurement through the bottom was carried out for 180 seconds at 2-second intervals at an excitation wavelength of 475 nm and at a measurement wavelength of 525 nm. The chemical was added 17 seconds after the measurement was initiated.

Setting [1] is: compound final concentration 10 μg/mL, PAR-2 agonist SLIGKV 10 μM, cultured human keratinocytes, (1-AUCantagonist/AUCcontrol)×100 of time-fluorescence intensity curve.

As to `NCCCC[C@H](NC(=O)CNC(=O)Nc1ccc2c(c1)c(CN1CCCC1)cn2Cc1c(Cl)cccc1Cl)C(=O)N[C@@H](Cc1ccccc1)C(=O)NC(c1ccccc1)c1ccccc1` [Example 10, [[N-[1-(2,6-dichlorophenyl)methyl]-3-(1-pyrrolidinylmethyl)-1H-indol-5-yl]aminocarbonyl]-glycine-L-lysine-L-phenylalanine-N-benzhydrylamide], the inhibition at 10 µg/mL stood at 58.4 ± 13%. Also, for the setting “compound final concentration 10 μg/mL, SLIGKV 10 μM, human keratinocytes, FIG. 1”, the “PAR-2 inhibitory action (inhibition of the agonist-induced increase in intracellular Ca2+ level), in words” value is recorded as “inhibition was recognized”.

Take `NCC[C@H](NC(=O)CNC(=O)Nc1ccc2c(c1)c(CN1CCCC1)cn2Cc1c(Cl)cccc1Cl)C(=O)N[C@@H](Cc1ccccc1)C(=O)NC(c1ccccc1)c1ccccc1` [Example 11, [[N-[1-(2,6-dichlorophenyl)methyl]-3-(1-pyrrolidinylmethyl)-1H-indol-5-yl]aminocarbonyl]-glycine-L-α,γ-diaminobutyrate-L-phenylalanine-N-benzhydrylamide]: the inhibition at 10 µg/mL under setting [1] turned out to be 32 ± 2.3%. The same measure, in the same setting: for `CN1CCN(Cc2cn(Cc3c(Cl)cccc3Cl)c3ccc(NC(=O)NCC(=O)N[C@@H](CCCCN)C(=O)N[C@@H](Cc4ccccc4)C(=O)NC(c4ccccc4)c4ccccc4)cc23)CC1` [Example 12, [[N-[1-(2,6-dichlorophenyl)methyl]-3-[1-(4-methylpiperazinyl)methyl]-1H-indol-5-yl]aminocarbonyl]-glycine-L-lysine-L-phenylalanine-N-benzhydrylamide] the value was 52.2 ± 1.8%; for `NCC[C@H](NC(=O)CNC(=O)Nc1ccc2c(c1)c(CN1CCCC1)cn2Cc1c(Cl)cccc1Cl)C(=O)N[C@@H](Cc1ccccc1)C(=O)NCc1ccccc1` [Example 20, [[N-[1-(2,6-dichlorophenyl)methyl]-3-(1-pyrrolidinylmethyl)-1H-indol-5-yl]aminocarbonyl]-glycine-L-α,γ-diaminobutyrate-L-phenylalanine-N-benzylamide], 33.6 ± 16.8%. On the same count and under the same terms, for `NCCCC[C@H](NC(=O)CNC(=O)Nc1ccc2c(c1)c(CN1CCCC1)cn2Cc1c(Cl)cccc1Cl)C(=O)N[C@@H](Cc1ccccc1)C(=O)NCc1ccccc1` [Example 21, [[N-[1-(2,6-dichlorophenyl)methyl]-3-(1-pyrrolidinylmethyl)-1H-indol-5-yl]aminocarbonyl]-glycine-L-lysine-L-phenylalanine-N-benzylamide] the value was 14.2 ± 10%; for `CC(C)n1ccc2cc(NC(=O)NCC(=O)N[C@@H](CCN)C(=O)N[C@@H](Cc3ccccc3)C(=O)NCc3ccccc3)ccc21` [Example 24, [[N-isopropyl-1H-indol-5-yl]aminocarbonyl]-glycine-L-α,γ-diaminobutyrate-L-phenylalanine-N-benzylamide], 15.1 ± 10.5%.

Usually inhibition stands for the share of the control response that was lost under treatment.
